The values that follow come from patent US9974801B2, “Methods of treating and preventing diseases and disorders of the central nervous system” (The United States of America, as represented by the …, priority 2012, dated 2018).

Series [1] has as its system phagocytic microglia (jellyfish morphology). Put plainly: Phagocytic (jellyfish) microglia after meningeal compression injury, 2P microscopy. It counts as in vivo, heterozygous CX3CR1-GFP mice. To be noted: p<0.05; for percentage of phagocytic (jellyfish) microglia in the imaging field: antagonist in aCSF applied to skull bone 30 min prior to injury, quantified 3 hrs post-injury, vs vehicle, FIG. 3. On the procedure:
(§1) Skull Thinning & Compression Injury. For imaging experiments, mice were anesthetized with ketamine (85 mg/kg), xylazine (13 mg/kg), and acepromazine (2 mg/kg) in PBS and maintained at a core temperature of 37° C. The skull bone over the barrel cortex was then thinned to a thickness of ˜30-40 μm as described (PMID: 20134419). For this procedure, the bone was manually thinned over a 30 minute period, and the amount of downward pressure was kept to a minimum. To induce a compression injury, the skull was thinned within 5 min to a thickness of ˜10-15 μm. Once thinned, the blunt of a surgical instrument was used to gently press the pliable skull bone downward. […] In one set of experiments, the skull bone was intentionally cracked to induce a severe injury. Imaging was performed immediately after injury.
Intravital two-photon laser scanning microscopy. Mice with a normally thinned or compressed skull bone were imaged using a Leica SP5 two-photon imaging system (Leica Microsystems, Bannockburn, Ill.) equipped with an 8000 Hz resonant scanner, a 20×/1.0 NA dipping objective, and two Mai Tai HP DeepSee Lasers (SpectraPhysics) tuned to 905, 920 or 970 nm. Fluorescence emission was separated by high efficiency custom dichroic mirrors (Semrock) and collected with a NDD4 external detector (Leica). Stacks of images were acquired using a step size of 1.0 μm to a depth of 150 μm. Time lapse movies were acquired with 1 min intervals between 3D stacks. For all imaging studies, the 20× lens was submerged directly into artificial cerebral spinal fluid (aCSF; 119 mM NaCl, 26.2 mM NaHCO3, 2.5 mm KCl, 1 mM NaH2PO4, 1.3 mM MgCl2, 1.2 mM CaCl2, 0.4% glucose, pH 7.4) placed atop the thinned skull.
Purinergic receptor, connexin hemichannel, and ROS antagonism. Prior to skull thinning, antagonists diluted in aCSF were applied directly to the skull bone, and vehicle was simultaneously applied to the opposite hemisphere to serve as a control. […] Vehicle and purinergic receptor antagonists were applied as a 3 mm diameter bubble on the skull surface and replenished as needed over a 30 min incubation period to prevent drying. This allowed the antagonists to continuously pass through the skull bone. Following the 30 min incubation, the skull was dried and then thinned to induce a compression injury over both hemispheres. Imaging was initiated immediately after injury. For most studies, the skull bone pre-incubated with antagonists was imaged continuously for 3-10 hrs, after which a 3D stack was captured from both the vehicle and antagonist treated areas for quantitative purposes. […] A similar study was conducted using 10 mM CBX.
Image Analysis. All quantitative analyses and processing of 3D/4D imaging data were performed using Imaris 7.0 software (Bitplane). Supplemental movies were constructed and annotated using Adobe Premiere Pro CS4. Microglia “honeycomb” reactions were quantified from 434×434×150 μm (xyz) 3D image stacks obtained at selected time points in CX3CR1^gfp/+ mice. This was accomplished by measuring the total length of microglial processes in contact with the glial limitans. […] Afterward, 10 microglia per mouse were randomly selected for quantification of process length. Only cells with all of their processes in the field of view and no more than 50 μm beneath the skull bone were quantified. Microglial processes that were touching (flat against) the glial limitans were labeled and measured using the Imaris “filaments” tool. […]

Series [2] has as its system microglia processes associated with the glial limitans. Description: Length of microglial processes in contact with the glial limitans after meningeal compression injury. It counts as in vivo, mice. To be noted: for length of microglial processes in contact with the glial limitans: transcranial administration of antagonist before injury, three hours following injury, p<0.05, FIG. 4. On the procedure:
as §1
(§2) Intravital two-photon laser scanning microscopy. […] Fluorescence emission was separated by high efficiency custom dichroic mirrors (Semrock) and collected with a NDD4 external detector (Leica). […]
(§3) Purinergic receptor, connexin hemichannel, and ROS antagonism. […] For most studies, the skull bone pre-incubated with antagonists was imaged continuously for 3-10 hrs, after which a 3D stack was captured from both the vehicle and antagonist treated areas for quantitative purposes. […]
Image Analysis. All quantitative analyses and processing of 3D/4D imaging data were performed using Imaris 7.0 software (Bitplane). […] Microglia “honeycomb” reactions were quantified from 434×434×150 μm (xyz) 3D image stacks obtained at selected time points in CX3CR1^gfp/+ mice. […] Afterward, 10 microglia per mouse were randomly selected for quantification of process length. Only cells with all of their processes in the field of view and no more than 50 μm beneath the skull bone were quantified. Microglial processes that were touching (flat against) the glial limitans were labeled and measured using the Imaris “filaments” tool. […]

Series [3] is described as follows: Skull bone permeability analysis (transcranial permeation of fluorescent probes). Format: in vivo, mice. The note with it: applied to intact skull bone as 3 mm bubble; 2P microscopy immediately after loading; FIG. 2. On the procedure:
Skull bone permeability analysis. For skull bone permeability studies, the following rhodamine-labeled dextrans were placed directly on the intact skull bone for up to 30 min: 3,000 MW (25 mM), 10,000 MW (5 mM), 40,000 MW (1 mM), and 70,000 MW (0.5 mM). SR101 (1 mM), a sulforhodamine dye, was used as a representative of 600 MW compound. Compounds were replenished as needed to prevent drying. Following the incubation period, the skull bone was quickly thinned and imaged. A 3D stack was captured to determine if the fluorescence could be found beneath the skull bone.
This example illustrates the effect of molecular weight of the compounds on the rate of transcranial permeation. To define the time and size of compounds that pass directly through the intact (non-thinned) skull, […] SR101 (600 MW) or different sized rhodamine-dextrans (25 mM 3,000 MW; 5 mM 10,000 MW; 1 mM 40,000 MW; 0.5 mM 70,000 MW) were applied to the skull bone. A 3 mm diameter bubble was left on the skull surface for the amount of time noted in minutes on the y axis of the table above. Because all compounds fluoresced, 2P microscopy was performed immediately after transcranial loading to determine if the compounds were present in the subarachnoid space.

A further series relates to neutrophils. Description: Neutrophil recruitment following meningeal compression injury. It counts as in vivo, LysM-GFP transgenic reporter mouse. The note with it: p<0.05. On the procedure: Skull Thinning & Compression Injury. For imaging experiments, mice were anesthetized with ketamine (85 mg/kg), xylazine (13 mg/kg), and acepromazine (2 mg/kg) in PBS and maintained at a core temperature of 37° C. The skull bone over the barrel cortex was then thinned to a thickness of ˜30-40 μm as described (PMID: 20134419). For this procedure, the bone was manually thinned over a 30 minute period, and the amount of downward pressure was kept to a minimum. To induce a compression injury, the skull was thinned within 5 min to a thickness of ˜10-15 μm. Once thinned, the blunt of a surgical instrument was used to gently press the pliable skull bone downward. […]
as §2, §3
Image Analysis. All quantitative analyses and processing of 3D/4D imaging data were performed using Imaris 7.0 software (Bitplane). […] Afterward, 10 microglia per mouse were randomly selected for quantification of process length. […]

Turning to `S=C=Nc1cccc(NC(=S)NCCCCNC(=S)Nc2cccc(N=C=S)c2)c1` [MRS2578], the “percentage of phagocytic (jellyfish) microglia in the imaging field” value (“percentage of phagocytic” for short) in series [1] is recorded as “significantly reduced”.

With `CSc1nc(N)c2ncn([C@@H]3O[C@H](COP(=O)(O)O)[C@@H](O)[C@H]3O)c2n1` [MeSAMP], the “length of microglial processes in contact with the glial limitans” value in series [2] was “significantly reduced”. In addition, the “percentage of phagocytic” value in series [1] was “significantly reduced”.

Regarding `O=S(=O)([O-])c1cc(S(=O)(=O)O)ccc1C1=c2cc3c4c(c2Oc2c1cc1c5c2CCCN5CCC1)CCC[N+]=4CCC3` [SR101], the “rate of passage through the skull into the subarachnoid space” value in series [3] was “pass through the skull more quickly than larger compounds”.

For `N[C@@H](CCC(=O)N[C@@H](CS)C(=O)NCC(=O)O)C(=O)O` [glutathione], the “microglia extending their processes and contacting the glial limitans” value in series [2] (pretreatment with 100 mM, transcranial, FIG. 10) is on record as “completely prevented”. The “formation of phagocytic (jellyfish) microglia following injury” value in series [1] (pretreatment with 100 mM, transcranial, FIG. 9) is on record as “eliminated the formation”. Besides, the “recruitment of neutrophils following compression injury” value with neutrophils (pretreatment with 100 mM, transcranial, FIG. 8) is “significantly reduced”.

With `Nc1ncnc2c1ncn2[C@@H](C=O)O[C@@H](C=O)COP(=O)(O)OP(=O)(O)OP(=O)(O)O` [oxidized ATP], the “percentage of phagocytic” value in series [1] is “not”. Besides, the “neutrophil recruitment to the injury site” value in the series on neutrophils (transcranial P2X7 antagonist applied to skull before injury, FIG. 5) is given as “completely blocked”.

Consider “trinitrophenyl-ATP hydrate [TNP-ATP hydrate]”, for which the “length of microglial processes in contact with the glial limitans” value in series [2] is “significantly reduced”. The “percentage of phagocytic” value in series [1] is “significantly reduced”.
